This is an account of results in patent US11339130B1 (Blade Therapeutics, Inc., priority 2016, dated 2022).

For one assay, the target named is T1, Human Calpain 2/NS1 (Homo sapiens, UniProt P17655).
T1 sequence (P17655 1-700): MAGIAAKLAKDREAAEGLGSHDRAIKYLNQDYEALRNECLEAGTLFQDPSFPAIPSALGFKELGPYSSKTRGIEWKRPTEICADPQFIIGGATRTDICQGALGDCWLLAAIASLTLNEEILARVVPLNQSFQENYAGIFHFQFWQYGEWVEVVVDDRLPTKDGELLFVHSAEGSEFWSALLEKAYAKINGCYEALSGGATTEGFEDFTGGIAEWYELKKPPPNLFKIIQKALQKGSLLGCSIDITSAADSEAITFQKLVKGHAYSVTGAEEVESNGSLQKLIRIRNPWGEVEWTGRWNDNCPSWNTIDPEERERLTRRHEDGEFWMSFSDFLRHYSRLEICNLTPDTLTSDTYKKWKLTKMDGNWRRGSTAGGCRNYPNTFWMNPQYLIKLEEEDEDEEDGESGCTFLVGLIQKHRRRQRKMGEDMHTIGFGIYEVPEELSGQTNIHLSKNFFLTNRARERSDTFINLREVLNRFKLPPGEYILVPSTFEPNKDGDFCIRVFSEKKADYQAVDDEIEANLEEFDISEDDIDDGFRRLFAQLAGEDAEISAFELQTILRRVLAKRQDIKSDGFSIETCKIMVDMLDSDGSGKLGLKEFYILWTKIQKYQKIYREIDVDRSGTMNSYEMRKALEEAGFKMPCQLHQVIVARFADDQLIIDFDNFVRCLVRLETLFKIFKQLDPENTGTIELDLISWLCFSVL
T1 sequence (P04632 1-268 partner): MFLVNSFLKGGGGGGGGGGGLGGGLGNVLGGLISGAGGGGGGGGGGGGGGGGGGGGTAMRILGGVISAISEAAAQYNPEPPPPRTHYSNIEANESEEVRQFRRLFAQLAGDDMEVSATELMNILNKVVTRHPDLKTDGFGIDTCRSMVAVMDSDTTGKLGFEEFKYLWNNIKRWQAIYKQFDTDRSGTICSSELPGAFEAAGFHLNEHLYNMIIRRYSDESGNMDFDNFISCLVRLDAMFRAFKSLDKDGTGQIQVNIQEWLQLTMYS
As to the kind of experiment: Calpain inhibition continuous fluorescence (FRET) assay, Human Calpain 2/NS1. In kind it is biochemical. The settings on record: read-out: Human Calpain 2/NS1 IC50. In short, it runs like this: (§1)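 Continuous FRET read (ex 490/em 520 nm, 10 min) of calpain 1, 2 or 9 cleaving an internally quenched 5-FAM peptide, triggered by substrate with CaCl2 after enzyme–inhibitor incubation at ambient 25 °C, pH 7.5 Tris/NaCl/DTT buffer. IC50 from initial rates (1-5 min) via 4-parameter fit.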

For assay [1], the system named is Calpain activity in SH-SY5Y cells (SBDP-150). As to the kind of experiment: SH-SY5Y Spectrin western blot assay (SBDP-150 breakdown product, A23187-induced). In kind it is cell-based. The settings on record: Homo sapiens, SH-SY5Y cells, read-out: SH-SY5Y Spectrin IC50. In general terms: In western blotting, separated proteins are transferred to a membrane and probed.

The target in the next assay is T2, Human Calpain 9/NS1 (Homo sapiens, UniProt O14815).
T2 sequence (O14815 1-690): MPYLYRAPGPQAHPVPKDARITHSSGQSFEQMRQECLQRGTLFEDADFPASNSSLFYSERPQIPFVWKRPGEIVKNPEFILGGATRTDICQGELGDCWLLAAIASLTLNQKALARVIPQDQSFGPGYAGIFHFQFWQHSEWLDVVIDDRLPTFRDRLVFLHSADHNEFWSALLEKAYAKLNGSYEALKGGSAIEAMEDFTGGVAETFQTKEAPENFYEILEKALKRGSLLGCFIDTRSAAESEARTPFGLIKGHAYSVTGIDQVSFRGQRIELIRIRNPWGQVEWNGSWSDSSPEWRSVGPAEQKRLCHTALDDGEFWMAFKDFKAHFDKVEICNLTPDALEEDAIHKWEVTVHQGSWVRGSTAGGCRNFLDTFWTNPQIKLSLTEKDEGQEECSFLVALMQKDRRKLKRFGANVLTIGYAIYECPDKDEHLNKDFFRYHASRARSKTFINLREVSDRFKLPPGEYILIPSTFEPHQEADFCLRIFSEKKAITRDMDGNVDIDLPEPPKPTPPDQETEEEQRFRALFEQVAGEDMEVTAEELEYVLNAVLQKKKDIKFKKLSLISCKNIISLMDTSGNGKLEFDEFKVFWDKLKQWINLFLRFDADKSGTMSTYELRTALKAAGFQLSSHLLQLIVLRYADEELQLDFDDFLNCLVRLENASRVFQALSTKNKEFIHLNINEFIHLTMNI
T2 sequence (P04632 1-268 partner): T1 sequence (P04632 1-268 partner)
As to the kind of experiment: Calpain inhibition continuous fluorescence (FRET) assay, Human Calpain 9/NS1. It is filed as biochemical. To be noted: read-out: Human Calpain 9/NS1 IC50. The procedure, abridged:
as §1

The subject of assay [2] is Calpain activity in SH-SY5Y cells. As to the kind of experiment: SH-SY5Y + AMC fluorescence assay (Suc-LLVY-AMC substrate). It is filed as cell-based. The settings on record: read-out: SH-SY5Y + AMC IC50.
The target of a further assay is T3, Human Calpain 1/NS1 (Homo sapiens, UniProt P07384).
T3 sequence (P07384 1-714): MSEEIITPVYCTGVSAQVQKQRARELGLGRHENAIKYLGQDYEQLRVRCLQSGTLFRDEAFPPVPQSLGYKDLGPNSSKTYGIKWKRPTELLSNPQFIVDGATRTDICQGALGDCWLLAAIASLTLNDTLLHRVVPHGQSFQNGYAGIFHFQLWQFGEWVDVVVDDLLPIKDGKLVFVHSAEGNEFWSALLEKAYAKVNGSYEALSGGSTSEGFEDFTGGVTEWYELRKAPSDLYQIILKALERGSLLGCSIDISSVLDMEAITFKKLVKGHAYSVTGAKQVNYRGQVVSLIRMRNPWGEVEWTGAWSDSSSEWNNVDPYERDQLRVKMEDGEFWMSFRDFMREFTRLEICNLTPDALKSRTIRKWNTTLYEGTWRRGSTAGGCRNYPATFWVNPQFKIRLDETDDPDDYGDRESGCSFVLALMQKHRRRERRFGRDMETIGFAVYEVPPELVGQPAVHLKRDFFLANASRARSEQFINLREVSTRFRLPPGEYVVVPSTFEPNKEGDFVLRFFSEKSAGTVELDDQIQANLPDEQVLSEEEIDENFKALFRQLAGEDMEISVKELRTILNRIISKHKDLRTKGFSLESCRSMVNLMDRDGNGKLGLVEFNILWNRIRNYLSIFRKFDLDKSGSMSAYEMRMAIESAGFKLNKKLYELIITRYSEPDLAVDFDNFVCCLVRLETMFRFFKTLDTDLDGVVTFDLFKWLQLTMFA
T3 sequence (P04632 1-268 partner): T1 sequence (P04632 1-268 partner)
As to the kind of experiment: Calpain inhibition continuous fluorescence (FRET) assay, Human Calpain 1/NS1. In kind it is biochemical. To be noted: read-out: Human Calpain 1/NS1 IC50. The procedure, abridged: as §1

The mark [3] stands for this setting: Column D, A23187-induced SBDP-150.
Where [4] appears, read: A23187-induced SBDP-150, western blot.

Each structure is given as a SMILES string. Read-outs that look alike come from different tables or passages of the source.

Regarding `NC(=O)C(=O)[C@H](Cc1ccccc1)NC(=O)c1sc(C2CC2)nc1-c1ccccc1` [Compound 207, (S)—N-(4-amino-3,4-dioxo-1-phenylbutan-2-yl)-2-cyclopropyl-4-phenylthiazole-5-carboxamide], the IC50 at Human Calpain 2/NS1 (Column B) is less than 3 µM; in assay [1] (setting [3]), 10 to 25 µM; at Human Calpain 9/NS1 (Column C), less than 3 µM; in assay [2] (Column E), less than 10 µM; at Human Calpain 1/NS1 (Column A), less than 3 µM.
In the case of `CCn1cc(C(=O)NC(Cc2ccccc2)C(=O)C(N)=O)c(-c2ccc(F)cc2)n1` (stereo not drawn) [Compound 471, N-(4-amino-3,4-dioxo-1-phenylbutan-2-yl)-1-ethyl-3-(4-fluorophenyl)-1H-pyrazole-4-carboxamide], the IC50 on Human Calpain 2/NS1 was less than 3 µM; in assay [1] (setting [4]) it was 10 to 25 µM; at Human Calpain 9/NS1 it was less than 3 µM; in assay [2], 10 to 25 µM; on Human Calpain 1/NS1, less than 3 µM.
With `Cn1cc(C(=O)NC(Cc2ccccc2)C(=O)C(N)=O)c(-c2ccco2)n1` (stereo not drawn) [Compound 500, N-(4-amino-3,4-dioxo-1-phenylbutan-2-yl)-3-(furan-2-yl)-1-methyl-1H-pyrazole-4-carboxamide], the IC50 at Human Calpain 2/NS1 is less than 3 µM; in assay [1] (setting [4]), 10 to 25 µM; at Human Calpain 9/NS1, less than 3 µM; in assay [2] it was less than 10 µM; at Human Calpain 1/NS1, less than 3 µM.
For `NC(=O)C(=O)C(Cc1ccccc1)NC(=O)c1cn(C(F)F)nc1-c1cccc2ccccc12` (stereo not drawn) [Compound 547, N-(4-amino-3,4-dioxo-1-phenylbutan-2-yl)-1-(difluoromethyl)-3-(naphthalen-1-yl)-1H-pyrazole-4-carboxamide], the IC50 on Human Calpain 2/NS1 is less than 3 µM; in assay [1] (setting [4]), less than 10 µM; at Human Calpain 9/NS1 it was less than 3 µM; in assay [2], less than 10 µM; at Human Calpain 1/NS1, less than 3 µM.
Turning to `Cc1cc(C(=O)N[C@@H](Cc2ccccc2)C(=O)C(N)=O)n(-c2ccc(S(C)(=O)=O)cc2)n1` [Compound 17, (S)—N-(4-amino-3,4-dioxo-1-phenylbutan-2-yl)-3-methyl-1-(4-(methylsulfonyl)phenyl)-1H-pyrazole-5-carboxamide], the IC50 on Human Calpain 2/NS1 (Column B) was less than 3 µM; in assay [1] (setting [3]) it was less than 10 µM; on Human Calpain 9/NS1 (Column C), less than 3 µM; in assay [2] (Column E) it was more than 25 µM; on Human Calpain 1/NS1 (Column A), less than 3 µM.
Regarding `NC(=O)C(=O)C(Cc1ccccc1)NC(=O)c1nsnc1-c1ccc2c(c1)C(=O)N(Cc1ccccc1)C2` (stereo not drawn) [Compound 378, N-(4-amino-3,4-dioxo-1-phenylbutan-2-yl)-4-(2-benzyl-3-oxoisoindolin-5-yl)-1,2,5-thiadiazole-3-carboxamide], the IC50 on Human Calpain 2/NS1 is less than 3 µM; in assay [1] (setting [4]) it was less than 10 µM; at Human Calpain 9/NS1, less than 3 µM; in assay [2] it was more than 25 µM; on Human Calpain 1/NS1, less than 3 µM.
Regarding `CC(C)c1cccc(-c2nn(C)cc2C(=O)N[C@@H](Cc2ccccc2)C(=O)C(N)=O)c1` [Compound 180, (S)—N-(4-amino-3,4-dioxo-1-phenylbutan-2-yl)-3-(3-isopropylphenyl)-1-methyl-1H-pyrazole-4-carboxamide], the IC50 is less than 3 µM on Human Calpain 2/NS1 (Column B); less than 10 µM in assay [1] (setting [3]); less than 3 µM on Human Calpain 9/NS1 (Column C); 10 to 25 µM in assay [2] (Column E); less than 3 µM at Human Calpain 1/NS1 (Column A).
Regarding `COc1ccc2nc(-n3nc(C(=O)N[C@@H](Cc4ccccc4)C(=O)C(N)=O)cc3C)sc2c1` [Compound 296, (S)—N-(4-amino-3,4-dioxo-1-phenylbutan-2-yl)-1-(6-methoxybenzo[d]thiazol-2-yl)-5-methyl-1H-pyrazole-3-carboxamide], the IC50 at Human Calpain 2/NS1 (Column B) is less than 3 µM; in assay [1] (setting [3]), less than 10 µM; on Human Calpain 9/NS1 (Column C), less than 3 µM; in assay [2] (Column E), more than 25 µM; on Human Calpain 1/NS1 (Column A), less than 3 µM.
As for `Cc1cc(C(=O)NC(C=O)Cc2ccccc2)n(-c2ccc(C(F)(F)F)cn2)n1` (stereo not drawn) [Compound 399, 3-methyl-N-(1-oxo-3-phenylpropan-2-yl)-1-(5-(trifluoromethyl)pyridin-2-yl)-1H-pyrazole-5-carboxamide], the IC50 at Human Calpain 2/NS1 is less than 3 µM; in assay [1] (setting [4]) it was more than 25 µM; at Human Calpain 9/NS1 it was 3 to 10 µM; in assay [2], more than 25 µM; on Human Calpain 1/NS1 it was less than 3 µM.
For `NC(=O)C(=O)C(Cc1ccccc1)NC(=O)c1nsnc1-c1cccnc1` (stereo not drawn) [Compound 377, N-(4-amino-3,4-dioxo-1-phenylbutan-2-yl)-4-(pyridin-3-yl)-1,2,5-thiadiazole-3-carboxamide], the IC50 on Human Calpain 2/NS1 was less than 3 µM; in assay [1] (setting [4]) it was less than 10 µM; on Human Calpain 9/NS1 it was less than 3 µM; in assay [2], 10 to 25 µM; on Human Calpain 1/NS1 it was less than 3 µM.
On to `NC(=O)C(=O)C(Cc1ccccc1)NC(=O)c1cn(C(F)(F)F)nc1-c1ccccc1` (stereo not drawn) [Compound 489, N-(4-amino-3,4-dioxo-1-phenylbutan-2-yl)-3-phenyl-1-(trifluoromethyl)-1H-pyrazole-4-carboxamide], for which the IC50 was less than 3 µM at Human Calpain 2/NS1; 10 to 25 µM in assay [1] (setting [4]); less than 3 µM on Human Calpain 9/NS1; 10 to 25 µM in assay [2]; less than 3 µM at Human Calpain 1/NS1.
Take `CCCCC(NC(=O)c1nsnc1-c1ccccc1)C(=O)C(N)=O` (stereo not drawn) [Compound 467, N-(1-amino-1,2-dioxoheptan-3-yl)-4-phenyl-1,2,5-thiadiazole-3-carboxamide]: the IC50 at Human Calpain 2/NS1 was less than 3 µM; in assay [1] (setting [4]), less than 10 µM; on Human Calpain 9/NS1, less than 3 µM; in assay [2], more than 25 µM; on Human Calpain 1/NS1, less than 3 µM.
